“Also recorded” adds a separate entry of the source. Read-outs that look alike come from different tables or passages of the source.
What was measured:
ARPE19 cells [1] = assay: In vitro detection and quantification of intracellular ROS in ARPE19 cells (DCF-DA / DHE probes); format: cell-based, human; details: for intracellular ROS production: retinoid applied to cultured ARPE19 cells, ROS probe DCF-DA or DHE
Protocol: ARPE19 cells were cultured in Dulbecco's Modified Eagle's Medium (DMEM) (low glucose) supplemented with 10% fetal bovine serum. The ROS probes, 2′,7′-dichlorofluorescein diacetate (DCF-DA, Sigma, St. Louis, Mo.) or dihydroethidium (DHE, Invitrogen Corporation, Carlsbad, Calif.) were added after indicated pretreatments and incubated at 37° C. for 10-min before thorough washing in PBS and the ROS signals were subsequently observed at the same exposure setting under an inverted fluorescence microscope (Leica DMI 6000 B). Fluorescence quantification was performed with Metamorph imaging software (Molecular Devices, Downington, Pa.). Thresholds corresponding to fluorescent signals were set from the images and average fluorescence intensities were recorded for statistical analysis.

ARPE19 cells [2] = system: ARPE19 cells
[3] = system: ROS generation in photoreceptors of Abca4−/−Rdh8−/− mice; assay: In vivo detection of ROS (DHE probe) in retinas of light-exposed Abca4−/−Rdh8−/− mice; design: species or system mouse; details: for ROS production in the ONL / photoreceptors (DHE signal): Example 1, pretreatment before light 10,000 lux 30 min, retinas 3 h after illumination; for ROS generation in photoreceptors (DHE signal): Example 3, DOX 10 mg/kg, GUB 2.0 mg/kg, SQ 0.5 mg/kg ip 30 min prior to light
Protocol: The ROS probe, DHE, at a dose of 20 mg/kg body weight was administered to Abca4^−/−Rdh8^−/− mice via intraperitoneal injection 30 min prior to light exposure. Eye cups obtained after removing the cornea, lens and vitreous body from enucleated eye globes 3 h post light illumination were fixed in 4% paraformaldehyde. Cryosections were prepared from fixed eye cups and cut at 12 am thickness for microscopic assessment of ROS signal fluorescence in the retina.
The ROS probe, DHE, at a dose of 20 mg/kg body weight in 25 μl of DMSO, was administered to Abca4^−/−Rdh8^−/− mice via intraperitoneal injection 1 h prior to light exposure. Eye cups obtained after removing the cornea, lens, and vitreous body from enucleated eye globes 3 h post light illumination were fixed in 4% paraformaldehyde. Cryosections were prepared from fixed eye cups and cut at 12-am thickness for microscopic assessment of ROS fluorescence in the retina with ImageJ software (National Institutes of Health).

Abca4−/−Rdh8−/− mice [4] = assay: Bright light-induced retinal degeneration in Abca4−/−Rdh8−/− mice, OCT imaging of retinal structure; format: in vivo, mouse; details: for retinal / photoreceptor morphology by OCT imaging: pretreatment before light 10,000 lux 30 min, OCT 7 days after light exposure
Abca4−/−Rdh8−/− mice [5] = assay: Bright light-induced retinal degeneration in Abca4−/−Rdh8−/− mice, retinal histology and immunohistochemistry; format: in vivo, mouse; details: pretreatment before light 10,000 lux 30 min; 7-10 days after light exposure
Protocol: Retinal histology and immunohistochemistry (IHC) was performed as previously described. Briefly, eye cups free of cornea, lens and vitreous body were fixed in 2% glutaraldehyde/4% paraformaldehyde and processed for Epon embedding. Sections 1 am thick were cut and stained with toluidine blue for histological examination under a light microscope. IHC analysis was performed on 12 am thick cryosections prepared from 4% paraformaldehyde-fixed eye cups. Collected cryosections were subjected to examination for rhodopsin, PNA and DAPI expression.
Retinal immunohistochemistry (IHC) was carried out as previously described. Briefly, eyes were enucleated and eye cups were made to eliminate cornea, lens and vitreous body and fixed in 4% paraformaldehyde and processed for cryosectioning. 12 am thick cryosections were collected cryosections and subjected to examination for rhodopsin, peanut agglutinin lectin (PNA) and DAPI expression.
Retinal immunohistochemistry (IHC) was performed as previously described. Briefly, eyes were enucleated and, after removal of the cornea, lens and vitreous body, eye cups were fixed in 4% paraformaldehyde and processed for cryosectioning. Twelve μm thick cryosections were cut, collected and examined for rhodopsin expression, peanut agglutinin lectin (PNA) for cone sheath and nuclear DAPI staining. […]

Abca4−/−Rdh8−/− mice [6] = assay: Bright light-induced retinal degeneration in Abca4−/−Rdh8−/− mice, ERG retinal function; details: pretreatment before light 10,000 lux 30 min, ERG 7 days to 2 weeks after
Abca4−/−Rdh8−/− mice [7] = details: mouse, in vivo
Abca4−/−Rdh8−/− mice [8] = assay: Bright light-induced retinal degeneration in Abca4−/−Rdh8−/− mice, SLO autofluorescence imaging; format: in vivo, mouse; details: pretreatment before light 10,000 lux 30 min; SLO 8-9 days after light exposure
Protocol: SLO (Heidelberg Engineering, Heidelberg, Germany) was carried out for whole fundus imaging of mouse retinas. Mice were anesthetized by intraperitoneal injection of anesthetic cocktail indicated above, which was followed by pupil dilation using 1% tropicamide prior to SLO imaging under autofluorescence mode.
(§1) SLO (Heidelberg Engineering) was carried out for in vivo whole fundus imaging of mouse retinas. […] Numbers of autofluorescent spots were counted and subjected to statistical analyses as described below.
SLO (Heidelberg Engineering) was carried out for whole fundus imaging of mouse retinas in vivo. Mice were anesthetized, and their pupils were dilated as described above. SLO images were then acquired in the autofluorescence mode.

BALB/c mice [9] = assay: Light-induced retinal degeneration in BALB/c mice, retinal morphology (OCT, histology, IHC); format: in vivo, mouse; details: ip pretreatment 30 min before 10,000 lux, 7 days after light
BALB/c mice [10] = assay: Light-induced retinal degeneration in BALB/c mice, SLO autofluorescence imaging; format: in vivo, mouse; details: DOX 10, GUB 2.0, SQ 0.5 mg/kg, 7 days after light
Protocol: as §1
These drugs were administered to 4-week-old BALB/c mice by intraperitoneal injection 30 min prior to white light exposure at 10,000 lux for 1 h. Retinal morphology was assessed 7 days after light exposure by OCT imaging and histological examination.

[11] = Quantification of selected drugs in mouse serum and eye by LC-MS; format: in vivo, C57BL/6J WT mice; details: for Eye ± SD / concentration at 30 min: 30 min after a single ip dose: DOX 10, GUB 2, SQ 0.5 mg per kilogram; for Eye ± SD: mice perfused with PBS; for concentration at 30 min: C57BL/6J, mouse, serum, intraperitoneal, read-out: Serum ± SD; for amount in eye compared with level in 0.1 mL of serum: eye volume taken as about 0.1 mL
Protocol: C57BL/6J WT mice at 6 weeks of age (Jackson Laboratory) were treated with DOX, GUB, or SQ at a single dose of 10, 2, and 0.5 mg per kilogram, respectively. The compound was dissolved in 50% DMSO in PBS (137 mM NaCl, 2.7 mM KCl, 0.67 mM […]). Next, to precipitate excess proteins, 0.3 ml of methanol was added to both the eye homogenate and 0.1 ml of serum. Samples were vortexed for 30 s followed by centrifugation for 15 min at 16,000 g. Clear supernatants were collected and used directly for LC-MS analysis. 2HPO4/KH2PO4, pH 7.4) and administrated by intraperitoneal injection. Thirty minutes later the mice were anesthetized. Blood samples were collected using the technique of cardiac puncture and subsequently centrifuged (5 min, 16,000 g) to collect serum. Prior to harvesting eyes, mice were intracardially perfused with PBS to minimalize blood contamination. Eye balls were immediately homogenized in 0.1 ml of PBS. The homogenate and serum samples were spiked with 100 pmols of internal standard (IS) (parazosin—2-[4-(2-furoyl)piperazin-1-yl]-6,7-dimethoxyquinazolin-4-amine (Sigma Aldrich) or clenbuterol—(RS)-1-(4-Amino-3,5-dichlorophenyl)-2-(tert-butylamino)ethanol (Sigma Aldrich)) for DOX, GUB or SQ quantification, respectively.
Mass spectrometry (MS) based detection and quantification of DOX, GUB, and SQ was performed with a L×Q linear ion trap mass spectrometer (Thermo Scientific) equipped with an electrospray ionization (ESI) interface and coupled to Agilent 1100 HPLC (Agilent Technologies). Separation of drugs and the internal standards was achieved on a reverse phase C18 Phenomenex HPLC column (250×4.60 mm; 5 μm) by a linear gradient of to 100% acetonitrile in water within 15 min at flow rate of 0.5 ml/min. All solvents contained 0.1% formic acid (v/v). The HPLC effluent was sprayed into the MS via an ESI probe operated in the positive ionization mode. Parameters of ionization and detection were tuned with synthetic standards for the drugs to achieve the highest possible sensitivity. Dox and parazosin (internal standard) were detected by selected reaction monitoring (SRM) using m/z 452.2→344.2 and 384.2→247.1 transitions whereas GUB, SQ and their corresponding IS, clenbuterol, was by fragmentation at m/z 231.1→214.0, 206.1→136.0, and 277.1→259.1, respectively. The elution times for DOX, GUB, and SQ were ˜12.8, 12.3, and 10.8 min, respectively. Both internal standards eluted at 12.0 min (FIG. 34). Calibration curves were calculated based on the linear relationship between ratios of SRM ion intensity peak area corresponding to the selected drug and the IS vs. molar ratios of the compounds in the range of 20-500 pmol (FIG. 34H).

[12] = system: visual pigment regeneration; assay: Effect on chromophore regeneration (ERG responses and 11-cis-retinal levels after bleaching); format: in vivo; details: SQ treatment
Text: It is also worth noting that rhodopsin could be a central player in light-induced retinal degeneration, and that reduced amounts of rhodopsin protect the retina from light-induced degeneration. Therefore we examined the potential impact of the AC inhibitor SQ on chromophore regeneration given that AC is the central player in our newly identified GPCR signaling implicated in light-induced retinopathy (FIG. 1). […] Therefore, the possibility of an acute effect of pharmacological compounds on phototransduction could be ruled out.

[13] = retinoid alone, at the doses examined

In the case of `CC1=C(/C=C/C(C)=C/C=C/C(C)=C/C=O)C(C)(C)CCC1` [atRAL, all-trans-retinal], the “intracellular ROS production” value (ARPE19 cells [1]) is reported as “significantly elevated intracellular ROS production”.
With `CC1=C(/C=C/C(C)=C/C=C/C(C)=C/C(=O)O)C(C)(C)CCC1` [atRA, all-trans-retinoic acid] the “intracellular ROS production” value (ARPE19 cells [1]) was “did not induce overproduction of intracellular ROS” and the cell death (ARPE19 cells [2]; human, 24 h) was “neither atROL, atRA nor A2E induced cell death”.
For `COc1cc(C(C)=O)ccc1O` [APO, Apocynin], the “atRAL-induced intracellular ROS generation” value (ARPE19 cells [1]; APO applied to ARPE19 cells together with atRAL) was “inhibited atRAL-induced intracellular ROS generation”, the “ROS production in the ONL / photoreceptors (DHE signal)” value [3] was “substantially decreased ROS production” and the “retinal / photoreceptor morphology by OCT imaging” value (from here on “retinal / photoreceptor morphology”) (Abca4−/−Rdh8−/− mice [4]) was “well-preserved retinal morphology”. The “retinal histology / immunohistochemistry (rhodopsin, PNA, DAPI; ONL)” value (“retinal histology / immunohistochemistry” for short) (Abca4−/−Rdh8−/− mice [5]) was “nearly intact retinal morphology”, the ARPE19 cell survival (ARPE19 cells [2]; APO together with atRAL) was “improved ARPE19 cell survival” and the “retinal function by ERG (a-wave and b-wave amplitudes)” value (“retinal function by ERG” below) (Abca4−/−Rdh8−/− mice [6]) was “protective effect”.
For `CC1=C(/C=C/C(C)=C/C=C/C(C)=C/c2cc(/C=C/C=C(C)/C=C/C3=C(C)CCCC3(C)C)cc[n+]2CCO)C(C)(C)CCC1` [A2E, di-retinoid-pyridinium-ethanolamine], the “intracellular ROS production” value (ARPE19 cells [1]) was “did not induce overproduction of intracellular ROS” and the cell death (ARPE19 cells [2]; [13]) was “neither atROL, atRA nor A2E induced cell death”.
With `NCCOB(c1ccccc1)c1ccccc1` [2-APB, 2-aminoethoxydiphenyl borate] the “ROS production in the ONL / photoreceptors (DHE signal)” value [3] was “reduced ROS production”, the “retinal histology / immunohistochemistry” value (Abca4−/−Rdh8−/− mice [5]) was “significantly preserved retinal morphology” and the “retinal function by ERG” value (Abca4−/−Rdh8−/− mice [7]) was “protective effect”.
For `Nc1ncnc2c1ncn2C1CCCO1` (stereo not shown) [SQ 22536], the “ROS generation in photoreceptors (DHE signal)” value [3] was “decreased”, the “retinal / photoreceptor morphology” value (Abca4−/−Rdh8−/− mice [4]) was “protected retinas from light-induced degeneration in a dose-dependent manner” and the “retinal histology / immunohistochemistry” value (Abca4−/−Rdh8−/− mice [5]) was “substantially preserved photoreceptor morphology”. For the same compound, the “retinal autofluorescence spots by SLO imaging” value (Abca4−/−Rdh8−/− mice [8]) was “dose-dependent effect”, the “retinal morphology / ONL (OCT, histology)” value (BALB/c mice [9]) was “retinal morphology of drug-treated mice was maintained” and the “autofluorescent spots by SLO” value (BALB/c mice [10]) was “prevented”. For the same compound, the “Eye ± SD” value [11] was 5.6 ± 2.2 pmol/eye, the concentration at 30 min [11] was 193 ± 55 nM and the “amount in eye compared with level in 0.1 mL of serum” value [11] was 5 times lower. The “ERG responses and 11-cis-retinal levels after bleaching” value [12] was “no significant changes” and the “retinal function by ERG” value (Abca4−/−Rdh8−/− mice [6]; listed as SQ) was “substantial preservation of the scotopic ERG response; also recorded: substantial preservation of this response”.
For `CC1=C(/C=C/C(C)=C/C=C/C(C)=C/CO)C(C)(C)CCC1` [atROL, all-trans-retinol], the “intracellular ROS production” value (ARPE19 cells [1]) was “did not induce overproduction of intracellular ROS” and the cell death (ARPE19 cells [2]; [13]) was “neither atROL, atRA nor A2E induced cell death”.
In the case of `N=C(N)N/N=C/c1c(Cl)cccc1Cl` [Guanbenz], the “ROS generation in photoreceptors (DHE signal)” value [3] is reported as “decreased”, the “retinal / photoreceptor morphology” value (Abca4−/−Rdh8−/− mice [4]; listed as GUB) is reported as “significantly prevented; also recorded: dose-dependent fashion” and the “half maximal effective (protective) dose” value (Abca4−/−Rdh8−/− mice [4]; protection from bright light-induced degeneration, dose-response, FIG. 25A/B) is reported as 0.3 mg/kg. For the same compound, the “retinal histology / immunohistochemistry” value (Abca4−/−Rdh8−/− mice [5]) was “substantially preserved photoreceptor morphology”, the “retinal autofluorescence spots by SLO imaging” value (Abca4−/−Rdh8−/− mice [8]) was “markedly less autofluorescence spots” and the “retinal morphology / ONL (OCT, histology)” value (BALB/c mice [9]) was “retinal morphology of drug-treated mice was maintained”. The “autofluorescent spots by SLO” value (BALB/c mice [10]) was “prevented”, the “Eye ± SD” value [11] was 13.1 ± 4.7 pmol/eye and the concentration at 30 min [11] was 70 ± 18 nM. For the same compound, the “amount in eye compared with level in 0.1 mL of serum” value ([11]; listed as GUB) was “comparable”.

From patent publication US10426773B2, “Systems pharmacology for treating ocular disorders” (Case Western Reserve Univeristy, priority 2011, dated 2019)
